Here are results for 20 compounds from US9556181B2, “Substituted pyrazolopyrimidinylamino-indazoles” (BAYER PHARMA AKTIENGESELLSCHAFT, priority 2013, dated 2017).

Chain of human full-length MKNK1 (Q9BUB5 other isoform, or with tags, fused parts or gaps T344D): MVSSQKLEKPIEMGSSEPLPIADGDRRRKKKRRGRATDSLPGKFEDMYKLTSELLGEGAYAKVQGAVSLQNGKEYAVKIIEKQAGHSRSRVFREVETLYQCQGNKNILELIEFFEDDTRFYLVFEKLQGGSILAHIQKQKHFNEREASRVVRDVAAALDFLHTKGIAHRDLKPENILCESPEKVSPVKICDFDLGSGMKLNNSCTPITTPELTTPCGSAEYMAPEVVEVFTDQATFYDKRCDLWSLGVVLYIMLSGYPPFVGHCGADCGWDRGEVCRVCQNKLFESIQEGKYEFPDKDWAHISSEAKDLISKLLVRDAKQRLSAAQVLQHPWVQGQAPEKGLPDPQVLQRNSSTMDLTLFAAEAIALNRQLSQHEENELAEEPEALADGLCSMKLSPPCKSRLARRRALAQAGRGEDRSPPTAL

The assay addresses human full-length MKNK1 (Homo sapiens (Human), UniProt Q9BUB5, T344D). The assay can be described thus: MKNK1 kinase high ATP assay (TR-FRET). The following applies: high ATP (2 mM final), 15 min preincubation with enzyme. It counts as biochemical. The procedure:
MKNK1 Kinase High ATP Assay
MKNK1-inhibitory activity at high ATP of compounds of the present invention after their preincubation with MKNK1 was quantified employing the TR-FRET-based MKNK1 high ATP assay as described in the following paragraphs.
A recombinant fusion protein of Glutathione-S-Transferase (GST, N-terminally) and human full-length MKNK1 (amino acids 1-424 and T344D of accession number BAA 19885.1), expressed in insect cells using baculovirus expression system and purified via glutathione sepharose affinity chromatography, was purchased from Carna Biosciences (product no 02-145) and used as enzyme. As substrate for the kinase reaction the biotinylated peptide biotin-Ahx-IKKRKLTRRKSLKG (C-terminus in amide form) was used, which can be purchased e.g. from the company Biosyntan (Berlin-Buch, Germany).
For the assay 50 nL of a 100 fold concentrated solution of the test compound in DMSO was pipetted into a black low volume 384 well microtiter plate (Greiner Bio-One, Frickenhausen, Germany), 2 μL of a solution of MKNK1 in aqueous assay buffer [50 mM HEPES pH 7.5, 5 mM MgCl2, 1.0 mM dithiothreitol, 0.005% (v/v) Nonidet-P40 (Sigma)] was added and the mixture was incubated for 15 min at 22° C. to allow pre-binding of the test compounds to the enzyme before the start of the kinase reaction. Then the kinase reaction was started by the addition of 3 μL of a solution of adenosine-tri-phosphate (ATP, 3.3 mM=>final conc. in the 5 μL assay volume is 2 mM) and substrate (0.1 μM=>final conc. in the 5 μL assay volume is 0.06 μM) in assay buffer and the resulting mixture was incubated for a reaction time of 30 min at 22° C. The concentration of MKNK1 was adjusted depending of the activity of the enzyme lot and was chosen appropriate to have the assay in the linear range, typical concentrations were in the range of 0.003 μg/mL. The reaction was stopped by the addition of 5 μL of a solution of TR-FRET detection reagents (5 nM streptavidine-XL665 [Cisbio Bioassays, Codolet, France] and 1 nM anti-ribosomal protein S6 (pSer236)-antibody from Invitrogen [#44921G] and 1 nM LANCE EU-W1024 labeled ProteinG [Perkin-Elmer, product no. AD0071]) in an aqueous EDTA-solution (100 mM EDTA, 0.1% (w/v) bovine serum albumin in 50 mM HEPES pH 7.5).
The resulting mixture was incubated for 1 h at 22° C. to allow the formation of complex between the phosphorylated biotinylated peptide and the detection reagents. Subsequently the amount of phosphorylated substrate was evaluated by measurement of the resonance energy transfer from the Eu-chelate to the streptavidine-XL. Therefore, the fluorescence emissions at 620 nm and 665 nm after excitation at 350 nm were measured in a TR-FRET reader, e.g. a Rubystar (BMG Labtechnologies, Offenburg, Germany) or a Viewlux (Perkin-Elmer). The ratio of the emissions at 665 nm and at […] was taken as the measure for the amount of phosphorylated substrate. The data were normalised (enzyme reaction without inhibitor=0% inhibition, all other assay components but no enzyme=100% inhibition).
For orientation: Time-resolved FRET reads energy transfer from a long-lived donor to a nearby acceptor.
One may read the IC50 as the concentration needed to halve the response being measured. A higher IC50 goes with a need for much substance. `c1nc(Nc2ccc3[nH]ncc3c2)c2cn[nH]c2n1` [Example 1, N-(1H-Indazol-5-yl)-1H-pyrazolo[3,4-d]pyrimidin-4-amine] showed an IC50 of 0.117 µM.
`CC(C)Oc1cc2[nH]ncc2cc1Nc1ncnc2[nH]ncc12` [Example 3, N-[6-(Propan-2-yloxy)-1H-indazol-5-yl]-1H-pyrazolo[3,4-d]pyrimidin-4-amine]: it took 0.531 µM to reach half-maximal inhibition (IC50).
On to `COc1cc2[nH]ncc2cc1Nc1ncnc2[nH]nc(Br)c12` [Example 4, 3-Bromo-N-(6-methoxy-1H-indazol-5-yl)-1H-pyrazolo[3,4-d]pyrimidin-4-amine], for which the IC50 was 0.001 µM.
Regarding `Fc1cc2[nH]ncc2cc1Nc1ncnc2[nH]nc(Br)c12` [Example 5, 3-Bromo-N-(6-fluoro-1H-indazol-5-yl)-1H-pyrazolo[3,4-d]pyrimidin-4-amine], the IC50 was determined as 0.012 µM.
Under `Brc1n[nH]c2ncnc(Nc3ccc4[nH]ncc4c3)c12` [Example 6, 3-Bromo-N-(1H-indazol-5-yl)-1H-pyrazolo[3,4-d]pyrimidin-4-amine] stands 0.014 µM.
As for `COc1cc2[nH]ncc2cc1Nc1ncnc2[nH]nc(-c3ccccc3)c12` [Example 7, N-(6-methoxy-1H-indazol-5-yl)-3-phenyl-1H-pyrazolo[3,4-d]pyrimidin-4-amine], the IC50 stood at 0.003 µM.
Under `Fc1cc2[nH]ncc2cc1Nc1ncnc2[nH]nc(-c3ccccc3)c12` [Example 8, N-(6-fluoro-1H-indazol-5-yl)-3-phenyl-1H-pyrazolo[3,4-d]pyrimidin-4-amine] stands 0.015 µM; under `c1cncc(-c2n[nH]c3ncnc(Nc4ccc5[nH]ncc5c4)c23)c1` [Example 9, N-(1H-Indazol-5-yl)-3-(pyridin-3-yl)-1H-pyrazolo[3,4-d]pyrimidin-4-amine], 0.008 µM.
With `COc1cc2[nH]ncc2cc1Nc1ncnc2[nH]nc(-c3cccnc3)c12` [Example 10, N-(6-Methoxy-1H-indazol-5-yl)-3-(pyridin-3-yl)-1H-pyrazolo[3,4-d]pyrimidin-4-amine], half-maximal inhibition (IC50) required 0.006 µM.
Take `Fc1cc2[nH]ncc2cc1Nc1ncnc2[nH]nc(-c3cccnc3)c12` [Example 11, N-(6-fluoro-1H-indazol-5-yl)-3-(pyridin-3-yl)-1H-pyrazolo[3,4-d]pyrimidin-4-amine]: half-maximal inhibition (IC50) was put at 0.008 µM.
In turn, `Fc1ccc(-c2n[nH]c3ncnc(Nc4ccc5[nH]ncc5c4)c23)cc1` [Example 12, 3-(4-Fluorophenyl)-N-(1H-indazol-5-yl)-1H-pyrazolo[3,4-d]pyrimidin-4-amine] registered an IC50 of 0.012 µM.
`COc1cc2[nH]ncc2cc1Nc1ncnc2[nH]nc(-c3ccc(F)cc3)c12` [Example 13, 3-(4-Fluorophenyl)-N-(6-methoxy-1H-indazol-5-yl)-1H-pyrazolo[3,4-d]pyrimidin-4-amine] returned an IC50 of 0.002 µM.
Under `Fc1ccc(-c2n[nH]c3ncnc(Nc4cc5cn[nH]c5cc4F)c23)cc1` [Example 14, N-(6-Fluoro-1H-indazol-5-yl)-3-(4-fluorophenyl)-1H-pyrazolo[3,4-d]pyrimidin-4-amine] stands 0.012 µM.
`c1ccc(-c2n[nH]c3ncnc(Nc4ccc5[nH]ncc5c4)c23)cc1` [Example 15, N-(1H-Indazol-5-yl)-3-phenyl-1H-pyrazolo[3,4-d]pyrimidin-4-amine] yielded an IC50 of 0.026 µM.
For `COc1cc2[nH]ncc2cc1Nc1ncnc2[nH]nc(-c3ccncc3)c12` [Example 16, N-(6-Methoxy-1H-indazol-5-yl)-3-(pyridin-4-yl)-1H-pyrazolo[3,4-d]pyrimidin-4-amine], the IC50 was found to be 0.002 µM.
As for `CC(C)Oc1cc2[nH]ncc2cc1Nc1ncnc2[nH]nc(Br)c12` [Example 17, 3-Bromo-N-(6-isopropoxy-1H-indazol-5-yl)-1H-pyrazolo[3,4-d]pyrimidin-4-amine], the figure is 0.001 µM; as for `CC(C)Oc1cc2[nH]ncc2cc1Nc1ncnc2[nH]nc(-c3ccccc3)c12` [Example 18, N-(6-Isopropoxy-1H-indazol-5-yl)-3-phenyl-1H-pyrazolo[3,4-d]pyrimidin-4-amine], 0.019 µM; as for `CC(C)Oc1cc2[nH]ncc2cc1Nc1ncnc2[nH]nc(-c3ccc(F)cc3)c12` [Example 19, 3-(4-Fluorophenyl)-N-(6-isopropoxy-1H-indazol-5-yl)-1H-pyrazolo[3,4-d]pyrimidin-4-amine], 0.026 µM.
As for `CC(C)Oc1cc2[nH]ncc2cc1Nc1ncnc2[nH]nc(-c3cccnc3)c12` [Example 20, N-(6-Isopropoxy-1H-indazol-5-yl)-3-(pyridin-3-yl)-1H-pyrazolo[3,4-d]pyrimidin-4-amine], the figure is 0.063 µM.
With `CC(C)Oc1cc2[nH]ncc2cc1Nc1ncnc2[nH]nc(-c3ccncc3)c12` [Example 21, N-(6-Isopropoxy-1H-indazol-5-yl)-3-(pyridin-4-yl)-1H-pyrazolo[3,4-d]pyrimidin-4-amine], the IC50 turned out to be 0.027 µM.
